Tests used:
SMARCA4-HiBiT = molecular target: T1, SMARCA4-HiBiT (Homo sapiens, UniProt P51532); experiment: SMARCA4 HiBiT degradation assay in HeLa cells; assay type: cell-based; settings: 18 hours incubation; for DC50: read-out: HeLa-HiBit-SM4 DC50; for Dmax: HeLa, read-out: HeLa-HiBit-SM4 Dmax (%)
T1 construct: SMARCA4-HiBiT knock-in Hela monoclonal cell (CS3023226); host or cells: HeLa monoclonal knock-in line (CRISPR HiBiT knock-in at the endogenous locus, heterozygous)
In short: (§1)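 HeLa monoclonal lines with heterozygous HiBiT knock-in were seeded at 2500 cells/well in EMEM with 10% FBS and treated with compound for 18 h at 37 °C. Remaining tagged protein was measured by Nano-Glo HiBiT lytic luminescence after 30–60 min at RT, and values came from curve fitting.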

SMARCA2-HiBiT = molecular target: T2, SMARCA2-HiBiT (Homo sapiens, UniProt P51531); experiment: SMARCA2 HiBiT degradation assay in HeLa cells; assay type: cell-based; settings: 18 hours incubation; for DC50: read-out: HeLa_HiBit-SM2 DC50; for Dmax: HeLa, read-out: HeLa-HiBit-SM2 Dmax (%)
T2 construct: SMARCA2-HiBiT knock-in Hela monoclonal cell (CS302366); host or cells: HeLa monoclonal knock-in line (CRISPR HiBiT knock-in at the endogenous locus, heterozygous)
T2 sequence (P51531 whole entry): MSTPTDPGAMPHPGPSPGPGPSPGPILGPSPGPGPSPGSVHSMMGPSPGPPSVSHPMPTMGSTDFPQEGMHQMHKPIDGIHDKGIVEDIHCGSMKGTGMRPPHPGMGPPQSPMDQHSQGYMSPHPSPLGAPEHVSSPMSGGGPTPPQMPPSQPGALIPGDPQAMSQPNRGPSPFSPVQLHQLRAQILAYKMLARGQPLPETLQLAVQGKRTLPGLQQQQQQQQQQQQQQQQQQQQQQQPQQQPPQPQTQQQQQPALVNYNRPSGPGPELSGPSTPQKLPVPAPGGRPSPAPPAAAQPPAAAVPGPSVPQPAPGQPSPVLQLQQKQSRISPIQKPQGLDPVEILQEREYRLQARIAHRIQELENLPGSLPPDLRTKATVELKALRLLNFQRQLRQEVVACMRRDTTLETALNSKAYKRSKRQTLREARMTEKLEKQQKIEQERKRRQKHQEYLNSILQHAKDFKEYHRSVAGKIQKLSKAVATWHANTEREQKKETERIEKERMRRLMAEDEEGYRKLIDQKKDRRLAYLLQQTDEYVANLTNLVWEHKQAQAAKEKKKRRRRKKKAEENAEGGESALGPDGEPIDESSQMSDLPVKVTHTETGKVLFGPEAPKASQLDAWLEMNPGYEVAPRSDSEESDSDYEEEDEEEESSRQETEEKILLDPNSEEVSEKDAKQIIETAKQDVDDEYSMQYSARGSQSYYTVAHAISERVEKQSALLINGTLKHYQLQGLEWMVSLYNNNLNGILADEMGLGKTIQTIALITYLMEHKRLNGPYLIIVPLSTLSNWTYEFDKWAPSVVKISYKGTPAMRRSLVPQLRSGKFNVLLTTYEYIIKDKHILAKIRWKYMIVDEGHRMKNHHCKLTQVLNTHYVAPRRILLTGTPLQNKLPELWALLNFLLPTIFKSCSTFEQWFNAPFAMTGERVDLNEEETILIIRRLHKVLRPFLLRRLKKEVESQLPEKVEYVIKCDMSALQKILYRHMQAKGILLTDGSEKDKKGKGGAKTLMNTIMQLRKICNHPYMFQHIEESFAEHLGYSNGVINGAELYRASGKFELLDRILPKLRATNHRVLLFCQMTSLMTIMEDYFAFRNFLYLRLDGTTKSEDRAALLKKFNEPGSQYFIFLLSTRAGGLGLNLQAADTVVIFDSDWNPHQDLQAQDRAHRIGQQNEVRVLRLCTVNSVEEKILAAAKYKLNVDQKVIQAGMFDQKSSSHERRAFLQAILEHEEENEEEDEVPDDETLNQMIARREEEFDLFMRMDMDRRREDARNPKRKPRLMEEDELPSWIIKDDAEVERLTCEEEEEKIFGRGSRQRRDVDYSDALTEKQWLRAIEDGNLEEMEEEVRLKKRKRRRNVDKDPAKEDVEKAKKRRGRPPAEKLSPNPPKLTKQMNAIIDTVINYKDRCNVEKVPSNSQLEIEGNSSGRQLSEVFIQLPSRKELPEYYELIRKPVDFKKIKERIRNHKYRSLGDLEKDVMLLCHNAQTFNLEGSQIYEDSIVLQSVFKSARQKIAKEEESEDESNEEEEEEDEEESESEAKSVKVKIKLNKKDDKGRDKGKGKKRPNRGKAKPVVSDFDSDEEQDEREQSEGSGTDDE
In short: as §1

T1 sequence (P51532 whole entry): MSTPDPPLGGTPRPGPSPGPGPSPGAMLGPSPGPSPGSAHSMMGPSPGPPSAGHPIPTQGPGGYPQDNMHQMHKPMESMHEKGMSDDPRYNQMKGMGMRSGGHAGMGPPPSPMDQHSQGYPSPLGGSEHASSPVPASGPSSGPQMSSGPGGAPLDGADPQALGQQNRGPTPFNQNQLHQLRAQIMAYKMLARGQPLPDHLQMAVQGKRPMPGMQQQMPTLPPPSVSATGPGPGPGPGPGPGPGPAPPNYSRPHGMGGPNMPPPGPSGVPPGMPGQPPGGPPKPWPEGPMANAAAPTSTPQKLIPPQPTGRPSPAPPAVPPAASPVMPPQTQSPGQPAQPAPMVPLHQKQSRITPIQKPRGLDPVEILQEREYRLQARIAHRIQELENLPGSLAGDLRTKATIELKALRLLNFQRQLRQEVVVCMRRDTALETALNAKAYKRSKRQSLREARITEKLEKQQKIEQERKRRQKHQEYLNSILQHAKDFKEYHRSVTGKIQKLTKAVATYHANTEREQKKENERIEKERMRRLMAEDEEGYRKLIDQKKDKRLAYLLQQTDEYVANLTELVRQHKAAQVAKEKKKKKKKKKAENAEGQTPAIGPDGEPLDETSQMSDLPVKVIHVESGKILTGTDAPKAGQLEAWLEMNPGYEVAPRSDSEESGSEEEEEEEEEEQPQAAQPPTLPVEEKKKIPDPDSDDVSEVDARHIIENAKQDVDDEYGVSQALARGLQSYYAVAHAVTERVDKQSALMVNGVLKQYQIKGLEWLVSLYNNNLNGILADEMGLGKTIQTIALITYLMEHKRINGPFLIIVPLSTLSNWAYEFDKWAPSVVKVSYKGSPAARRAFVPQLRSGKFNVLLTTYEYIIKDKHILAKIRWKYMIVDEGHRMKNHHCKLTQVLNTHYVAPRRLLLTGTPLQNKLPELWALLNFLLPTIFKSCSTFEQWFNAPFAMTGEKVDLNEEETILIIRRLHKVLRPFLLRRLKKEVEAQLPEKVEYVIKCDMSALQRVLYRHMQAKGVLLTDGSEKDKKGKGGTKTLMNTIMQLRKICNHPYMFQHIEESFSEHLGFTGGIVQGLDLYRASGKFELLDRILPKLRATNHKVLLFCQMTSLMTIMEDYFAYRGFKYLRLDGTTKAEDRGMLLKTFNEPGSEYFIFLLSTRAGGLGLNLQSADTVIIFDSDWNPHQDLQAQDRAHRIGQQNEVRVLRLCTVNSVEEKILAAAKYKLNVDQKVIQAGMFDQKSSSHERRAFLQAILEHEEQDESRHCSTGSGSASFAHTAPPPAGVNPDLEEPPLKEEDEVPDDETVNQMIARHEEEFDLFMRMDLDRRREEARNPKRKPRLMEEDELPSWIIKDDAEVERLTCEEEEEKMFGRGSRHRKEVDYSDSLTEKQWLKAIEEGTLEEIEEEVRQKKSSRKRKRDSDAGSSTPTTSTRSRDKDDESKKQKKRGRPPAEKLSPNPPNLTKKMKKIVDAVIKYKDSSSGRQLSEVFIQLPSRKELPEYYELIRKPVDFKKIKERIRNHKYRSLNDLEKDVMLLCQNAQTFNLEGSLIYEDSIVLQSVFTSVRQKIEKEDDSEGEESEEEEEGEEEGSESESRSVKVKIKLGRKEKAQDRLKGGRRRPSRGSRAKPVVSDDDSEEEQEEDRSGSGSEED

SMILES | DC50 (SMARCA4-HiBiT) [nM] | Dmax (SMARCA4-HiBiT) [%] | DC50 (SMARCA2-HiBiT) [nM] | Dmax (SMARCA2-HiBiT) [%] | HeLa-HiBit-SM4 Dmax (%) (SMARCA4-HiBiT) | HeLa-HiBit-SM2 Dmax (%) (SMARCA2-HiBiT)
CC1CC(C(=O)N2CCN3c4cc(-c5ccccc5O)nnc4NC[C@H]3C2)CCN1CC1CCN(c2ccc3c(c2)C(=O)N(C2CCC(=O)NC2=O)C3)CC1 (stereo partly drawn) [Example 265, 3-(6-(4-((4-((S)-2-(2-hydroxyphenyl)-6,6a,7,8,9,10-hexahydro-5H-pyrazino[1′,2′:4,5]pyrazino[2,3-c]pyridazine-8-carbonyl)-2-methylpiperidin-1-yl)methyl)piperidin-1-yl)-1-oxoisoindolin-2-yl)piperidine-2,6-dione] | 10 to 100 | 75 to 85 | < 10 | 75 to 85 | – | –
O=C1CCC(N2Cc3cc(N4CCN(CC5CCN(CCN6CCN7c8cc(-c9ccccc9O)nnc8NC[C@H]7C6)CC5)CC4)ccc3C2=O)C(=O)N1 (stereo partly drawn) [Example 217, 3-(5-(4-((1-(2-((S)-2-(2-hydroxyphenyl)-5,6,6a,7,9,10-hexahydro-8H-pyrazino [1′,2′:4,5]pyrazino[2,3-c]pyridazin-8-yl)ethyl)piperidin-4-yl)methyl)piperazin-1-yl)-1-oxoisoindolin-2-yl)piperidine-2,6-dione] | < 10 | > 85 | < 10 | > 85 | – | –
O=C1CCC(N2Cc3ccc(N4CCC(CN5CCN(C(=O)N6CCN7c8cc(-c9ccccc9O)nnc8NC[C@H]7C6)CC5)CC4)cc3C2=O)C(=O)N1 (stereo partly drawn) [Example 95, 3-(6-(4-((4-((S)-2-(2-hydroxyphenyl)-6,6a,7,8,9,10-hexahydro-5H-pyrazino [1′,2′:4,5]pyrazino[2,3-c]pyridazine-8-carbonyl)piperazin-1-yl)methyl)piperidin-1-yl)-1-oxoisoindolin-2-yl)piperidine-2,6-dione] | < 10 | 75 to 85 | < 10 | > 85 | – | –
O=C1CCC(N2C(=O)c3cc(F)c(N4CCC(CN5C[C@@H]6[C@H](C5)[C@H]6CN5CCN6c7cc(-c8ccccc8O)nnc7NC[C@H]6C5)CC4)cc3C2=O)C(=O)N1 (stereo partly drawn) [Example 173, 2-(2,6-dioxopiperidin-3-yl)-5-fluoro-6-[4-[[(1S,5R)-6-[[(10S)-4-(2-hydroxyphenyl)-1,5,6,8,12-pentazatricyclo[8.4.0.02,7]tetradeca-2,4,6-trien-12-yl]methyl]-3-azabicyclo[3.1.0]hexan-3-yl]methyl]piperidin-1-yl]isoindole-1,3-dione] | 10 to 100 | 50 to 75 | < 10 | 75 to 85 | – | –
O=C1CCC(N2Cc3ccc(N4CCC(CN5C6CCC5CN(C(=O)N5CCN7c8cc(-c9ccccc9O)nnc8NC[C@H]7C5)C6)CC4)cc3C2=O)C(=O)N1 (stereo partly drawn) [Example 103, 3-(6-(4-((3-((S)-2-(2-hydroxyphenyl)-6,6a,7,8,9,10-hexahydro-5H-pyrazino[1′,2′:4,5]pyrazino[2,3-c]pyridazine-8-carbonyl)-3,8-diazabicyclo[3.2.1]octan-8-yl)methyl)piperidin-1-yl)-1-oxoisoindolin-2-yl)piperidine-2,6-dione] | 10 to 100 | 75 to 85 | < 10 | 75 to 85 | – | –

Other lines, results leading:

DC50 (SMARCA4-HiBiT) [nM] | Dmax (SMARCA4-HiBiT) [%] | DC50 (SMARCA2-HiBiT) [nM] | Dmax (SMARCA2-HiBiT) [%] | HeLa-HiBit-SM4 Dmax (%) (SMARCA4-HiBiT) | HeLa-HiBit-SM2 Dmax (%) (SMARCA2-HiBiT) | SMILES
10 to 100 | 75 to 85 | < 10 | 75 to 85 | – | – | O=C1CCC(N2C(=O)c3cc(F)c(N4CCC(CN5CC6CCC(C5)C6CN5CCN6c7cc(-c8ccccc8O)nnc7NC[C@H]6C5)CC4)cc3C2=O)C(=O)N1 (stereo partly drawn) [Example 169, 2-(2,6-dioxopiperidin-3-yl)-5-fluoro-6-[4-[[8-[[(10S)-4-(2-hydroxyphenyl)-1,5,6,8,12-pentazatricyclo[8.4.0.02,7]tetradeca-2,4,6-trien-12-yl]methyl]-3-azabicyclo[3.2.1]octan-3-yl]methyl]piperidin-1-yl]isoindole-1,3-dione]
< 10 | > 85 | < 10 | > 85 | – | – | CN(CCN1CCC(N2CCN3c4cc(-c5ccccc5O)nnc4NC[C@H]3C2)CC1)C1CCN(c2ccc3c(c2)C(=O)N(C2CCC(=O)NC2=O)C3=O)CC1 (stereo partly drawn) [Example 158, 2-(2,6-dioxopiperidin-3-yl)-5-(4-((2-(4-((S)-2-(2-hydroxyphenyl)-5,6,6a,7,9,10-hexahydro-8H-pyrazino[1′,2′:4,5]pyrazino[2,3-c]pyridazin-8-yl)piperidin-1-yl)ethyl)(methyl)amino)piperidin-1-yl)isoindoline-1,3-dione]
< 10 | 75 to 85 | < 10 | > 85 | – | – | N#CC1(CN2CCN3c4cc(-c5ccccc5O)nnc4NC[C@H]3C2)CCN(CC2CCN(c3ccc4c(c3)C(=O)N(C3CCC(=O)NC3=O)C4=O)CC2)CC1 (stereo partly drawn) [Example 178, 1-[[1-[2-(2,6-dioxopiperidin-3-yl)-1,3-dioxoisoindol-5-yl]piperidin-4-yl]methyl]-4-[[(10S)-4-(2-hydroxyphenyl)-1,5,6,8,12-pentazatricyclo[8.4.0.02,7]tetradeca-2,4,6-trien-12-yl]methyl]piperidine-4-carbonitrile]
10 to 100 | 50 to 75 | < 10 | 50 to 75 | – | – | O=C1CCC(N2C(=O)c3ccc(N4CCC(CN5CCC(S(=O)(=O)N6CCN7c8cc(-c9ccccc9O)nnc8NC[C@H]7C6)CC5)CC4)cc3C2=O)C(=O)N1 (stereo partly drawn) [Example 137, 2-(2,6-dioxopiperidin-3-yl)-5-(4-((4-(((S)-2-(2-hydroxyphenyl)-5,6,6a,7,9,10-hexahydro-8H-pyrazino[1′,2′:4,5]pyrazino[2,3-c]pyridazin-8-yl)sulfonyl)piperidin-1-yl)methyl)piperidin-1-yl)isoindoline-1,3-dione]
< 10 | – | < 10 | – | B (B=75%<Dmax<=85%) | A (A=Dmax>85%) | O=C1CCC(N2C(=O)c3ccc(N4CC[C@H](CN5CCC(C(=O)N6CCN7c8cc(-c9cc(F)ccc9O)nnc8NC[C@H]7C6)CC5)[C@@H](F)C4)cc3C2=O)C(=O)N1 (stereo partly drawn) [Example 280, 2-(2,6-dioxopiperidin-3-yl)-5-((3R,4R)-3-fluoro-4-((4-((S)-2-(5-fluoro-2-hydroxyphenyl)-6,6a,7,8,9,10-hexahydro-5H-pyrazino[1′,2′:4,5]pyrazino[2,3-c]pyridazine-8-carbonyl)piperidin-1-yl)methyl)piperidin-1-yl)isoindoline-1,3-dione]
< 10 | > 85 | < 10 | > 85 | – | – | O=C1CCC(N2C(=O)c3ccc(N4CCC(CN5CCC(CN6CCN7c8cc(-c9ccccc9O)nnc8NC[C@H]7C6)CC5)C(F)(F)C4)cc3C2=O)C(=O)N1 (stereo partly drawn) [Example 181, 5-[3,3-difluoro-4-[[4-[[(10S)-4-(2-hydroxyphenyl)-1,5,6,8,12-pentazatricyclo[8.4.0.02,7]tetradeca-2,4,6-trien-12-yl]methyl]piperidin-1-yl]mehtyl]piperidin-1-yl]-2-(2,6-dioxopiperidin-3-yl) isoindoline-1,3-dione]
< 10 | 75 to 85 | < 10 | 75 to 85 | – | – | CN(CCNc1ccc2c(c1)C(=O)N(C1CCC(=O)NC1=O)C2=O)C1CCC(N2CCN3c4cc(-c5ccccc5O)nnc4NC[C@H]3C2)CC1 (stereo partly drawn) [Example 220, 2-(2,6-dioxopiperidin-3-yl)-5-((2-((4-((S)-2-(2-hydroxyphenyl)-5,6,6a,7,9,10-hexahydro-8H-pyrazino[1′,2′:4,5]pyrazino[2,3-c]pyridazin-8-yl)cyclohexyl)(methyl)amino)ethyl)amino) isoindoline-1,3-dione]
